Measurements as given in patent US20230202989A1, “COMPOUNDS” (JANSSEN PHARMACEUTICA NV, priority 2020, published 2023).
Like-named read-outs stand apart in the source and are kept apart here.

Tests used:
TNF = assay: PBMC assay: TNF cytokine levels after LPS stimulation (MSD); format: cell-based; conditions: human PBMCs, 100 ng/ml LPS for 6 hrs
How it was run: (§1)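 TNF (EC50) and IL-1β (IC50) were quantified by MSD in supernatants after 6 h stimulation with 100 ng/ml LPS. Thawed healthy-donor PBMCs, 7.5×10^4 per well, were exposed to 1:3 compound dilutions for 30 min beforehand at 37 °C.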

IL-1β = assay: PBMC assay: inhibition of IL-1β release after LPS stimulation (MSD); format: cell-based; conditions: human PBMCs, 100 ng/ml LPS for 6 hrs, MSD, 96 well plates, read-out: IL1β IC50
How it was run: as §1

SMILES	EC50 (TNF; Homo sapiens, PBMC, 6 h)	IC50 (IL-1β; Homo sapiens, PBMC, 6 h)	EC50 (TNF)	IC50 (IL-1β)
CCc1nn(CC(=O)Nc2c(-c3ccnc(OC)c3)ccc3c2CCC3)c(=O)c2ccc(Br)cc12 [X-1013]	> 20 µM	> 20 µM		
CC(=O)c1nn(CC(=O)Nc2ccn(C(C)C)n2)c(=O)c2ccc(Br)cc12 [X-1014, 2-(4-acetyl-6-bromo-1-oxophthalazin-2(1H)-yl)-N-(1-isopropyl-1H-pyrazol-3-yl)acetamide]	> 20 µM	> 20 µM		
COC(C)c1nn(CC(=O)Nc2ccnnc2)c(=O)c2ccc(Br)cc12 (stereo not shown) [X-1015]	> 20 µM	2.13 µM		
COC(C)c1nn(CC(=O)Nc2ccncn2)c(=O)c2ccc(Br)cc12 (stereo not shown) [X-1016]	> 20 µM	0.819 µM		
COC(C)c1nn(CC(=O)Nc2ccc3nncn3c2)c(=O)c2ccc(Br)cc12 (stereo not shown) [X-1017]	> 20 µM	0.506 µM		
COC(C)c1nn(CC(=O)N[C@H]2C[C@@](C)(O)C2)c(=O)c2ccc(Br)cc12 (stereo partly shown) [X-1018]	> 20 µM	0.832 µM		
O=C(Cn1nc(C(F)F)c2cc(Br)ccc2c1=O)Nc1ccc2nncn2c1 [X-1019]	> 20 µM	0.183 µM		
C[C@]1(O)C[C@@H](NC(=O)Cn2nc(C(F)F)c3cc(Br)ccc3c2=O)C1 [X-1020]	> 20 µM	0.133 µM		
Cn1nc(NC(=O)Cn2nc(C(F)F)c3cc(Br)ccc3c2=O)ccc1=O [X-1021]	> 20 µM	0.437 µM		
C[C@]1(O)C[C@@H](NC(=O)Cn2nc(C3CC3)c3cc(Br)ccc3c2=O)C1 [X-1022]	> 20 µM	0.057 µM		
O=C(Cn1nc(C2CC2)c2cc(Br)ccc2c1=O)Nc1ccc2nncn2c1 [X-1023]	> 20 µM	0.101 µM		
Cn1nc(NC(=O)Cn2nc(C3CC3)c3cc(Br)ccc3c2=O)ccc1=O [X-1024]	> 20 µM	0.497 µM		
COc1ccc2c(=O)n(CC(=O)Nc3ccncn3)nc(C(C)C)c2c1 [X-1025]			> 20 µM	2.52 µM
CCc1nn(CC(=O)Nc2ccn(C(C)C)n2)c(=O)c2ccc(C3CC3)cc12 [X-1026]	> 20 µM	> 20 µM		
CC(C)c1nn(CC(=O)N[C@H]2C[C@@](C)(O)C2)c(=O)c2ccc(Cl)cc12 [X-1027]	> 20 µM	0.06 µM		
CC(C)c1nn(CC(=O)Nc2ccncn2)c(=O)c2ccc(Cl)cc12 [X-1028]	> 20 µM	0.128 µM		
CC(C)c1nn(CC(=O)Nc2ccc3nncn3c2)c(=O)c2ccc(Cl)cc12 [X-1029]	> 20 µM	0.041 µM		
CC(C)c1nn(CC(=O)Nc2ccc3cncn3c2)c(=O)c2ccc(Cl)cc12 [X-1030]	> 20 µM	0.436 µM		
CC(C)c1nn(CC(=O)Nc2ccc3c(c2)[nH]c(=O)n3C)c(=O)c2ccc(Br)cc12 [X-1031]	4.64 µM	0.03 µM		

SMILES	EC50 (TNF; Homo sapiens, PBMC, 6 h)	IC50 (IL-1β; Homo sapiens, PBMC, 6 h)	EC50 (TNF)	IC50 (IL-1β)
CC(C)c1nn(CC(=O)Nc2ccc3cnn(C)c3c2)c(=O)c2ccc(Br)cc12 [X-1033]	> 20 µM	0.848 µM		
CC(C)c1nn(CC(=O)Nc2ccc3cnn(C(F)F)c3c2)c(=O)c2ccc(Br)cc12 [X-1034]	> 20 µM	3.01 µM		
CC(C)c1nn(CC(=O)N[C@@H]2CCCN(C3CC3)C2)c(=O)c2ccc(Br)cc12 [X-1035]	> 20 µM	0.032 µM		
CC(C)c1nn(CC(=O)Nc2ccc(=O)n(C)n2)c(=O)c2ccc(Br)cc12 [X-1036]	> 20 µM	0.141 µM		
CCc1nn(CC(=O)N[C@H]2C[C@@](C)(O)C2)c(=O)c2ccc(N(C)C)cc12 [X-1037]	> 20 µM	2.33 µM		
CC(C)c1nn(CC(=O)Nc2ccncn2)c(=O)c2ccc(OC(F)(F)F)cc12 [X-1038]	9.55 µM	2.51 µM		
CC(C)c1nn(CC(=O)N[C@H]2C[C@@](C)(O)C2)c(=O)c2ccc(OCC(F)(F)F)cc12 [X-1039]	> 20 µM	13 µM		
CC(C)c1nn(CC(=O)Nc2ccc3nncn3c2)c(=O)c2ccc(OC(F)(F)F)cc12 [X-1040]	7.19 µM	1.13 µM		
CC(C)c1nn(CC(=O)N[C@H]2C[C@@](C)(O)C2)c(=O)c2ccc(OC(F)(F)F)cc12 [X-1041]	> 20 µM	1.33 µM		
CCOC(C)c1ccc2c(=O)n(CC(=O)N[C@H]3C[C@@](C)(O)C3)nc(C(C)C)c2c1 (stereo partly shown) [X-1042]	> 20 µM	12.2 µM		
CC(C)c1nn(CC(=O)N[C@H]2C[C@@](C)(O)C2)c(=O)c2ccc(C(C)(C)O)cc12 [X-1043]	> 20 µM	11 µM		
CC(C)c1nn(CC(=O)Nc2ccncn2)c(=O)c2ccc(C(C)(C)O)cc12 [X-1044]	8.29 µM	4.38 µM		
CC(C)c1nn(CC(=O)Nc2ccc3nncn3c2)c(=O)c2ccc(C(C)(C)O)cc12 [X-1045]	> 20 µM	3.76 µM		
CC(C)c1nn(CC(=O)Nc2ccc3nncn3c2)c(=O)c2ccc(N(C)C)cc12 [X-1046]	> 20 µM	0.422 µM		
CC(C)c1nn(CC(=O)N[C@H]2C[C@@](C)(O)C2)c(=O)c2ccc(N(C)C)cc12 [X-1047]	> 20 µM	1.57 µM		
CC(C)c1nn(CC(=O)Nc2ccc3nncn3c2)c(=O)c2ccc(C(C)(C)C)cc12 [X-1048]	8.08 µM	0.27 µM		
CC(C)c1nn(CC(=O)N[C@H]2C[C@@](C)(O)C2)c(=O)c2ccc(C(C)(C)C)cc12 [X-1049]	> 20 µM	0.426 µM		
CC(C)c1nn(CC(=O)Nc2ccncn2)c(=O)c2ccc(C(C)(C)C)cc12 [X-1050]	> 20 µM	0.99 µM		
CC(C)c1nn(CC(=O)Nc2ccc3nncn3n2)c(=O)c2ccc(C(C)(C)C)cc12 [X-1051]	7.02 µM	0.106 µM		

SMILES	EC50 (TNF; Homo sapiens, PBMC, 6 h)	IC50 (IL-1β; Homo sapiens, PBMC, 6 h)	EC50 (TNF)	IC50 (IL-1β)
CC(C)c1nn(CC(=O)Nc2ccc3nncn3c2)c(=O)c2ccc(C(F)(F)C(F)(F)F)cc12 [X-1052]	> 20 µM	1.26 µM		
CC(C)c1nn(CC(=O)Nc2ccnnc2)c(=O)c2ccc(C(F)(F)C(F)(F)F)cc12 [X-1053]	> 20 µM	3.18 µM		
COC(C)c1ccc2c(=O)n(CC(=O)Nc3ccc4nncn4c3)nc(C(C)C)c2c1 (stereo not shown) [X-1054]	18.6 µM	0.539 µM		
COC(C)c1ccc2c(=O)n(CC(=O)N[C@H]3C[C@@](C)(O)C3)nc(C(C)C)c2c1 (stereo partly shown) [X-1055]	> 20 µM	2.13 µM		
COC(C)c1ccc2c(=O)n(CC(=O)Nc3ccncn3)nc(C(C)C)c2c1 (stereo not shown) [X-1056]	14 µM	1.61 µM		
COC(C)(C)c1ccc2c(=O)n(CC(=O)Nc3ccc4nncn4c3)nc(C(C)C)c2c1 [X-1057]	17.5 µM	1.91 µM		
COC(C)(C)c1ccc2c(=O)n(CC(=O)N[C@H]3C[C@@](C)(O)C3)nc(C(C)C)c2c1 [X-1058]	> 20 µM	4.55 µM		
COC(C)(C)c1ccc2c(=O)n(CC(=O)Nc3ccncn3)nc(C(C)C)c2c1 [X-1059]	> 20 µM	2.42 µM		
CC(C)c1nn(CC(=O)N[C@H]2C[C@@](C)(O)C2)c(=O)c2ccc(C#N)cc12 [X-1060]	> 20 µM	1.74 µM		
CC(C)c1nn(CC(=O)Nc2ccncn2)c(=O)c2ccc(C#N)cc12 [X-1061]	> 20 µM	> 20 µM		
CC(C)c1nn(CC(=O)N[C@H]2C[C@@](C)(O)C2)c(=O)c2ccc(C(C)(F)F)cc12 [X-1062]	> 20 µM	0.09 µM		
CC(C)c1nn(CC(=O)Nc2ccc3nncn3c2)c(=O)c2ccc(C(C)(F)F)cc12 [X-1063]	1.85 µM	0.016 µM		
CC(C)c1nn(CC(=O)Nc2ccnnc2)c(=O)c2ccc(C(C)(F)F)cc12 [X-1064]	18.9 µM	0.533 µM		
CC(C)c1nn(CC(=O)Nc2ccc(=O)n(C)n2)c(=O)c2ccc(C(C)(F)F)cc12 [X-1065]	15.7 µM	0.293 µM		
CC(C)c1nn(CC(=O)Nc2ccc(=O)n(C)c2)c(=O)c2ccc(C(C)(F)F)cc12 [X-1066]	6.78 µM	0.156 µM		
CC(C)c1nn(CC(=O)Nc2ccc3nccn3c2)c(=O)c2ccc(C(C)(F)F)cc12 [X-1067]	13.2 µM	0.175 µM		
CC(C)c1nn(CC(=O)N[C@H]2C[C@@](C)(O)C2)c(=O)c2ccc(C3CC3(F)F)cc12 (stereo partly shown) [X-1068]	> 20 µM	2.8 µM		
CC(C)c1nn(CC(=O)Nc2ccc3nncn3c2)c(=O)c2ccc(C3CC3(F)F)cc12 (stereo not shown) [X-1069]	14.1 µM	1.14 µM		
